Laboratory results: patent US20110009335A1, “Anticancer Treatments” (priority 2008, published 2011)
Like-named read-outs stand apart in the source and are kept apart here. Starred links: 1 amine or outer side, 2 acyl side, 3 side chain; linkers in the order of their positions; H or OH if unused. Positions of bridges follow the written chain, without caps; N, C: chain ends. Non-standard residues stand in square brackets, D forms with d. Residues, ends and D or L forms follow the SMILES beside them. *: point of attachment. X1 = CC[C@H](C)[C@@H](N[*:1])[C@@H](O)CC(=O)O[C@H](C(=O)[C@H](C)C(=O)[*:2])C(C)C; NMeY = CN[C@@H](Cc1ccc(O)cc1)C(=O)O; dNMeL = CN[C@H](CC(C)C)C(=O)O; Pyruvoyl = CC(=O)C(=O)*

Legend:
[1] = tested on: CAKI-1 human renal tumor xenograft; assay: Aplidine with sorafenib, CAKI-1 xenograft in athymic nude mice (Example 1); assay type: in vivo
Experimental: (§1) Female athymic nude mice (Harlan Sprague Dawley, Madison, Wis.) were utilized for all experiments. Mice were implanted with tumor fragments or a cell suspension when mice were 5 weeks of age. Animals were housed in ventilated rack caging, 5 mice per cage, with food and water ad libitum. The mice were acclimated for 1 week prior to being implanted with tumor fragments or cell suspensions.
(§2) Tumor measurements were determined by using Vernier calipers. The formula to calculate volume for a prolate ellipsoid was used to estimate tumor volume (mm^3) from 2-dimensional tumor measurements: Tumor volume (mm^3)=[L×W^2]÷2, where L is the length and it is the longest diameter in mm, and W is the width and it is the shortest diameter in mm of a tumor. Assuming unit density, volume was converted to weight (i.e., 1 mm^3=1 mg).
(§3) Body weights were recorded on treatment days and when tumor sizes were measured. In those days wherein the two drugs were administered the same day, the combination therapy groups were treated by co-administering the two drugs at the same time, with no attempt to sequence the treatments.
(§4) Aplidine was provided in the form of vials of lyophilized aplidine powder which was reconstituted in Cremophor EL/ethanol/water (CEW) 15/15/70 to a concentration of 0.5 mg/ml. Then the aplidine solution in CEW was diluted in 0.9% Saline to the dosing formulation concentrations, being the final proportion of CEW of 0.18/0.18/0.84.
(§5) Tumor size measurements were recorded twice weekly from the treatment initiation until the termination of the study.
(§6) Mean, standard deviation and standard error of the mean were determined for tumor volume for all animal groups at all assessments. Student's t test was performed on tumor volumes at each measurement day, including at the end of the study, to determine whether there were any statistically significant differences between combination treatment groups and single monotherapy treatment groups.
(§7) Determine the % of tumor growth inhibition, as 100−% T/C, for each of the drugs administered as monotherapy at the doses used in the combinations. % T/C was obtained by comparing the mean tumor weight in the treatment groups (T) to the mean tumor weight in the control group (C) (T/C×100%). • 2. The two scores were added together to determine the “expected response” if each agent produced the same response as it did when administered as monotherapy. • 3. This “expected response” was subtracted from the % of tumor growth inhibition determined for the combination therapy group: • a. A negative number meant that the effect of combining the two drugs was less than additive. • b. If the resulting number was close to zero, the effect of combining the two drugs was determined as additive. • c.

[2] = tested on: MRI-H-121 human renal tumor xenograft; assay: Aplidine with sorafenib, MRI-H-121 xenograft in athymic nude mice (Example 1); assay type: in vivo
Experimental: as §1, §2, §3, §4, §5, §6, §7

[3] = tested on: HepG2 human hepatoma xenograft; assay: Aplidine with sorafenib, HepG2 xenograft in athymic nude mice (Example 6); assay type: in vivo; details: for % Inhibition G2: aplidine 0.06 mg/kg/day
Experimental: Female athymic nude mice (Harlan Sprague Dawley, Madison, Wis.) were utilized for all experiments. Mice were implanted with a cell suspension when mice were 6-8 weeks of age. Animals were housed in ventilated rack caging with food and water ad libitum. The mice were acclimated for at least 5 days prior to tumor implantation.
The tumor model used in this study was HepG2, which is a human hepatoma cell line obtained from the ATCC (Manassas, Va.). HepG2 cells were grown in MEM medium, 10% FBS, 1.5 g/l sodium bicarbonate, 0.1 mM non-essential amino acids, 1.0 mM sodium pyruvate and 2 mM L-glutamine. Cells from in vitro passage 4-20 were implanted SC into study mice: 5×10^6 cells/mouse in 0.2 ml 50% Matrigel/50% medium without antibiotics or serum, using a 23 G needle and 1 cc syringe. Bacterial cultures were performed on aliquots of the cells prepared for implantation.
Tumor measurements were determined as disclosed in Example 1. When tumor growth was within an average size range of 130±44 mg (mean±SD), mice were randomized into the treatment and control groups based on tumor weight by using LabCat® In Life module V 8.0 SP1 tumor tracking and measurement software.
The treatment of HepG2-tumor-bearing mice was initiated on DPI (Day Post Implantation) 19. Body weights were recorded on treatment days and when tumor sizes were measured. In those days wherein the two drugs were administered the same day, the combination therapy groups were treated by co-administering the two drugs at the same time, with no attempt to sequence the treatments.
Aplidine was provided in the form of vials of lyophilized aplidine powder which was reconstituted in Cremophor EL/ethanol/water (CEW) 15/15/70 to a concentration of 0.5 mg/ml. The aplidine solution in CEW was diluted in 0.9% Saline to the dosing formulation concentrations, being the final proportion of CEW of 0.18/0.18/0.84.
as §5, §6
The definition and criteria for the evaluation of potentiation and the degree of additivity for the combination therapy were the same as those disclose in Example 1.

[4] = aplidine 0.040 and/or sorafenib 30 mg/kg/day
[5] = aplidine 0.060 and/or sorafenib 60 mg/kg/day
[6] = G2: aplidine 0.060 mg/kg/day IP

CC[C@H](C)[C@H]1NC(=O)[C@@H](NC(=O)[C@@H](CC(C)C)N(C)C(=O)[C@@H]2CCCN2C(=O)C(C)=O)[C@@H](C)OC(=O)[C@H](Cc2ccc(OC)cc2)N(C)C(=O)[C@@H]2CCCN2C(=O)[C@H](CC(C)C)NC(=O)[C@@H](C)C(=O)[C@H](C(C)C)OC(=O)C[C@@H]1O [aplidine, dehydrodidemnin B] (Pyruvoyl-P[dNMeL]T[X1]LP[NMeY](Me); ester 3-C)
% T/C on day 7 [1, 4]: 115.8% | % T/C on day 9 [1, 4]: 124.7% | % T/C on day 13 [1, 4]: 101.5% | % T/C on day 16 [1, 4]: 108.2% | % T/C on day 21 [1, 4]: 104.9% | % T/C on day 23 [1, 4]: 104.3% | % T/C on day 28 [1, 4]: 104.6% | % T/C on day 31 [1, 4]: 96.8% | % T/C on day 34 [1, 4]: 100.9% | % T/C on day 37 [1, 4]: 108.7% | % T/C on day 41 [1, 4]: 109.5% | % T/C on day 44 [1, 4]: 108.4% | % T/C on day 49 [1, 4]: 104.4% | % T/C on day 7 [1, 5]: 103.9% | % T/C on day 9 [1, 5]: 113.8% | % T/C on day 13 [1, 5]: 101.6% | % T/C on day 16 [1, 5]: 105.7% | % T/C on day 21 [1, 5]: 108.5% | % T/C on day 23 [1, 5]: 109.0% | % T/C on day 28 [1, 5]: 107.5% | % T/C on day 31 [1, 5]: 100.3% | % T/C on day 34 [1, 5]: 101.8% | % T/C on day 37 [1, 5]: 107.7% | % T/C on day 41 [1, 5]: 103.1% | % T/C on day 44 [1, 5]: 99.4% | % T/C on day 49 [1, 5]: 96.5% | antitumor activity as single agent (monotherapy) ([1]; doses and schedules tested): inactive | % T/C on day 14 [2, 4]: 103.5% | % T/C on day 16 [2, 4]: 104.0% | % T/C on day 20 [2, 4]: 85.1% | % T/C on day 23 [2, 4]: 85.9% | % T/C on day 27 [2, 4]: 94.1% | % T/C on day 30 [2, 4]: 86.4% | % T/C on day 34 [2, 4]: 91.0% | % T/C on day 37 [2, 4]: 85.6% | % T/C on day 41 [2, 4]: 92.5% | % T/C on day 44 [2, 4]: 93.9% | % T/C on day 48 [2, 4]: 94.9% | % T/C on day 14 [2, 5]: 102.0% | % T/C on day 16 [2, 5]: 97.5% | % T/C on day 20 [2, 5]: 81.5% | % T/C on day 23 [2, 5]: 73.9% | % T/C on day 27 [2, 5]: 98.4% | % T/C on day 30 [2, 5]: 88.5% | % T/C on day 34 [2, 5]: 75.8% | % T/C on day 37 [2, 5]: 75.0% | % T/C on day 41 [2, 5]: 88.3% | % T/C on day 44 [2, 5]: 90.2% | % T/C on day 48 [2, 5]: 95.5% | antitumor activity as single agent (monotherapy) ([2]; doses and schedules tested, sorafenib 60 or 30 mg/kg/day): refractory | % T/C on day 19 [3, 6]: 95.9% | % T/C on day 22 [3, 6]: 97.0% | % T/C on day 26 [3, 6]: 66.7% | % T/C on day 30 [3, 6]: 76.9% | % T/C on day 33 [3, 6]: 91.0% | % Inhibition G2 ([3]; day 19): 4.1% | % Inhibition G2 ([3]; day 22): 3.0% | % Inhibition G2 ([3]; day 26): 33.3% | % Inhibition G2 ([3]; day 30): 23.1% | % Inhibition G2 ([3]; day 33): 9.0% | antitumor activity as single agent (monotherapy) ([3]; doses tested): inactive | effect on body weight / toxicity (A498 study, Example 2 (sunitinib)): did not cause a significant decline in mean body weight | effect on body weight / toxicity (CAKI-1 study, Example 1 (sorafenib)): did not cause a significant decline in mean body weight | effect on body weight / toxicity (CAKI-1 study, Example 2 (sunitinib)): did not cause a significant decline in mean body weight | effect on body weight / toxicity (CAKI-1 study, Example 4 (temsirolimus)): did not cause a significant decline in mean body weight | effect on body weight / toxicity (HepG2 study, Example 6 (sorafenib)): did not cause a significant decline in mean body weight | effect on body weight / toxicity (LOX-IMVI study, Example 7 (sorafenib)): did not cause a significant decline in mean body weight | effect on body weight / toxicity (MRI-H-121 study, Example 2 (sunitinib)): did not cause a significant decline in mean body weight | effect on body weight / toxicity (NCI-H-460 study, Example 5 (temsirolimus)): did not cause a significant decline in mean body weight
